Reference: PMC8079033, “Design, synthesis, anticancer evaluation, and molecular modelling studies of novel tolmetin derivatives as potential VEGFR-2 inhibitors and apoptosis inducers” (Journal of Enzyme Inhibition and Medicinal Chemistry, 2021)

Experiments:
786-0 = test: NCI 60-cell line one-dose antiproliferative screen (SRB); format: cell-based; settings: Homo sapiens, read-out: growth inhibition % (GI%)
Method in brief: (§1)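 At 10 µM, compounds incubate with cells 48 h (37 °C, 5% CO2, 100% humidity) following a 24 h attachment period. Fixation in trichloroacetic acid precedes sulforhodamine B staining and Tris-solubilised dye measurement.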

ACHN = test: as above; format: cell-based; settings: Homo sapiens, read-out: growth inhibition % (GI%)
Method in brief: as §1

CAKI-1 = test: as above; format: cell-based; settings: Homo sapiens, read-out: growth inhibition % (GI%)
Method in brief: as §1

DU-145 = test: as above; format: cell-based; settings: Homo sapiens, read-out: growth inhibition % (GI%)
Method in brief: as §1

HCC-2998 = test: as above; format: cell-based; settings: Homo sapiens, read-out: growth inhibition % (GI%)
Method in brief: as §1

HCT-15 = test: as above; format: cell-based; settings: Homo sapiens, read-out: growth inhibition % (GI%)
Method in brief: as §1

HL-60 (TB) = test: as above; format: cell-based; settings: Homo sapiens, read-out: growth inhibition % (GI%)
Method in brief: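 Compounds tested at a single 10 µM dose for 48 h at 37 °C after 24 h pre-incubation; cells TCA-fixed and stained with sulforhodamine B, absorbance at 515 nm. Percent growth calculated relative to no-compound control and time-zero cell count, reported as growth inhibition percentage.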

KM12 = test: as above; format: cell-based; settings: Homo sapiens, read-out: growth inhibition % (GI%)
Method in brief: as §1

MALME-3M = test: as above; format: cell-based; settings: Homo sapiens, read-out: growth inhibition % (GI%)
Method in brief: as §1

NCI-H226 = test: as above; format: cell-based; settings: Homo sapiens, read-out: growth inhibition % (GI%)
Method in brief: as §1

NCI-H23 = test: as above; format: cell-based; settings: Homo sapiens, read-out: growth inhibition % (GI%)
Method in brief: as §1

NCI-H460 = test: as above; format: cell-based; settings: Homo sapiens, read-out: growth inhibition % (GI%)
Method in brief: as §1

OVCAR-3 = test: as above; format: cell-based; settings: Homo sapiens, read-out: growth inhibition % (GI%)
Method in brief: as §1

OVCAR-4 = test: as above; format: cell-based; settings: Homo sapiens, read-out: growth inhibition % (GI%)
Method in brief: as §1

OVCAR-5 = test: as above; format: cell-based; settings: Homo sapiens, read-out: growth inhibition % (GI%)
Method in brief: as §1

SF-539 = test: as above; format: cell-based; settings: Homo sapiens, read-out: growth inhibition % (GI%)
Method in brief: as §1

SK-MEL-28 = test: as above; format: cell-based; settings: Homo sapiens, read-out: growth inhibition % (GI%)
Method in brief: as §1

SK-MEL-2 = test: as above; format: cell-based; settings: Homo sapiens, read-out: growth inhibition % (GI%)
Method in brief: as §1

SK-MEL-5 = test: as above; format: cell-based; settings: Homo sapiens, read-out: growth inhibition % (GI%)
Method in brief: as §1

SK-OV-3 = test: as above; format: cell-based; settings: Homo sapiens, read-out: growth inhibition % (GI%)
Method in brief: as §1

SR = test: as above; format: cell-based; settings: Homo sapiens, read-out: growth inhibition % (GI%)
Method in brief: as §1

TK-10 = test: as above; format: cell-based; settings: Homo sapiens, read-out: growth inhibition % (GI%)
Method in brief: as §1

UACC-257 = test: as above; format: cell-based; settings: Homo sapiens, read-out: growth inhibition % (GI%)
Method in brief: as §1

UO-31 = test: as above; format: cell-based; settings: Homo sapiens, read-out: growth inhibition % (GI%)
Method in brief: as §1

Colo 205 = test: NCI 60-cell line one-dose antiproliferative screen (SRB); format: cell-based; settings: Homo sapiens, read-out: growth inhibition % (GI%)
Method in brief: as §1

HS 578 T = test: as above; format: cell-based; settings: Homo sapiens, read-out: growth inhibition % (GI%)
Method in brief: as §1

HT29 = test: as above; format: cell-based; settings: Homo sapiens, HT-29, read-out: growth inhibition % (GI%)
Method in brief: as §1

[1] = tested on: panel of 60 tumour cell lines; test: NCI 60-cell line one-dose screen, summary over the panel; format: cell-based, human; settings: Homo sapiens, 60 cell, listed leukaemia, lung, colon, CNS, melanoma, ovarian, renal, breast lines, read-out: GI% range, potent growth inhibitory effects on the cell lines listed in the text
Protocol: Anticancer activity screening of the newly synthesised compounds was measured in vitro utilising 60 different human tumour cell lines provided by US National Cancer Institute according to previously reported standard procedure[41–43] as follows: Cells are inoculated into 96-well microtiter plates in 100 ml. After cell inoculation, the microtiter plates are incubated at 37 °C, 5% CO2, 95% air, and 100% relative humidity for 24 h prior to addition of experimental compounds. After 24 h, two plates of each cell line are fixed in situ with TCA, to represent a measurement of the cell population for each cell line at the time of compound addition (Tz). Experimental compounds are solubilised in dimethyl sulfoxide at 400-fold the desired final maximum test concentration and stored frozen prior to use. At the time of compound addition, an aliquot of frozen concentrate is thawed and diluted to twice the desired final maximum test concentration with a complete medium containing […] gentamicin. Aliquots of […] of the compounds dilutions are added to the appropriate microtiter wells already containing 100 ml of medium, resulting in the required final compound concentration. Following compound addition, the plates are incubated for an additional 48 h at 37 °C, 5% CO2, 95% air, and 100% relative humidity. […] The bound stain is subsequently solubilised with a 10 mM trizma base, and the absorbance is read on an automated plate reader at a wavelength of 515 nm. […] Using the absorbance measurements [time zero, (Tz), control growth, (C), and test growth in the presence of compound (Ti)], the percentage growth is calculated for each compound. […]
Fifteen newly synthesised compounds were tested for their in vitro antiproliferative activity by the National Cancer Institute (NCI), Maryland, USA[50], under the Developmental Therapeutic Program (DTP)[41]^,[43]^,[51]^,[52]. The tested compounds were evaluated at a concentration of 10 µM on a panel of 60 tumour cell lines representing leukaemia and non-small cell lung, colon, CNS, melanoma, ovarian, renal, prostate, and breast cancers. […]

[2] = tested on: leukaemia HL-60 (TB) cell line; test: MTT cytotoxicity assay; format: cell-based; settings: Homo sapiens, mean ± SD of three experiments
colon (HCT-15) cell line = test: MTT cytotoxicity assay; format: cell-based; settings: Homo sapiens, mean ± SD of three experiments
renal (UO-31) cell line = test: MTT cytotoxicity assay; format: cell-based; settings: Homo sapiens, mean ± SD of three experiments

Compound | inhibition at 10 µM (786-0) [%] | inhibition at 10 µM (ACHN) [%] | inhibition at 10 µM (CAKI-1) [%] | inhibition at 10 µM (DU-145) [%] | inhibition at 10 µM (HCT-15) [%] | inhibition at 10 µM (HL-60 (TB)) [%] | inhibition at 10 µM (KM12) [%] | inhibition at 10 µM (MALME-3M) [%] | inhibition at 10 µM (NCI-H226) [%] | inhibition at 10 µM (NCI-H23) [%] | inhibition at 10 µM (NCI-H460) [%] | inhibition at 10 µM (OVCAR-4) [%] | inhibition at 10 µM (OVCAR-5) [%] | inhibition at 10 µM (SF-539) [%] | inhibition at 10 µM (SK-MEL-2) [%] | inhibition at 10 µM (SK-MEL-5) [%] | inhibition at 10 µM (SK-OV-3) [%] | inhibition at 10 µM (SR) [%] | inhibition at 10 µM (UO-31) [%] | melting point [°C] | further results
Cc1ccc(C(=O)c2ccc(CC(=O)NN=Cc3ccccc3O)n2C)cc1 [Compound 5a, N′-(2-Hydroxybenzylidene)-2–(1-methyl-5–(4-methylbenzoyl)-1H-pyrrol-2-yl)aceto hydrazide] | < 10 | 46.8 | 35.5 | 10.4 | 56.5 | 13 | 19.6 | < 10 | < 10 | 17.1 | 23.4 | 39.8 | < 10 | 10.9 | 10.4 | 12.6 | < 10 | 43.8 | 59.3 | 222 to 224 | inhibition at 10 µM (HCC-2998): < 10%; inhibition at 10 µM (OVCAR-3): 19.7%; inhibition at 10 µM (SK-MEL-28): 15.7%; inhibition at 10 µM (TK-10): 14.9%; inhibition at 10 µM (UACC-257): < 10%
Cc1ccc(C(=O)c2ccc(CC(=O)NN=Cc3cccc(O)c3O)n2C)cc1 [Compound 5b, N′-(2,3-Dihydroxybenzylidene)-2–(1-methyl-5–(4-methylbenzoyl)-1H-pyrrol-2-yl) acetohydrazide] | 23.6 | 86.5 | 62.7 | 50.7 | 84.3 | 95.9 | 55.8 | 41.3 | 31 | 54.6 | 91.4 | 70.9 | 27.4 | 66.2 | < 10 | 65.4 | 32 | 91.1 | 85.8 | – | inhibition at 10 µM (Colo 205): 37%; inhibition at 10 µM (HCC-2998): 29.4%; inhibition at 10 µM (HS 578 T): 12.6%; inhibition at 10 µM (HT29): 13.3%; inhibition at 10 µM (OVCAR-3): 76.5%; inhibition at 10 µM (SK-MEL-28): 20%; inhibition at 10 µM (TK-10): 61.2%; inhibition at 10 µM (UACC-257): 10.3%; inhibition at 10 µM [1]: 60.9 to 95.9%; IC50 [2]: 10.3 ± 0.55 µM; IC50 (colon (HCT-15) cell line): 6.62 ± 0.35 µM; IC50 (renal (UO-31) cell line): 7.69 ± 0.41 µM
Cc1ccc(C(=O)c2ccc(CC(=O)NN=Cc3c[nH]c4ccccc34)n2C)cc1 [Compound 5f, N′-((1H-Indol-3-yl)methylene)-2–(1-methyl-5–(4-methylbenzoyl)-1H-pyrrol-2-yl) acetohydrazide] | < 10 | 34.2 | 17 | – | 16.8 | 27 | – | 19.3 | < 10 | < 10 | < 10 | 11.1 | < 10 | < 10 | – | < 10 | – | 11.2 | 32.8 | 168 to 170 | inhibition at 10 µM (HS 578 T): < 10%; inhibition at 10 µM (OVCAR-3): < 10%
Cc1ccc(C(=O)c2ccc(CC(=O)NN3C(=O)CCC3=O)n2C)cc1 [Compound 7a, N-(2,5-Dioxopyrrolidin-1-yl)-2–(1-methyl-5–(4-methylbenzoyl)-1H-pyrrol-2-yl) acetamide] | < 10 | 11.2 | 28.3 | – | < 10 | < 10 | – | – | 22.6 | 24.8 | < 10 | 31.9 | 10.6 | < 10 | < 10 | < 10 | 14 | – | 41.2 | > 300 | inhibition at 10 µM (HT29): < 10%
Cc1ccc(C(=O)c2ccc(CC(=O)NN3C(=O)C=CC3=O)n2C)cc1 [Compound 7b, N-(2,5-Dioxo-2,5-dihydro-1H-pyrrol-1-yl)-2–(1-methyl-5–(4-methylbenzoyl)-1H-pyrrol-2-yl)acetamide] | < 10 | 11.1 | 20.3 | < 10 | < 10 | 10.6 | < 10 | – | 22.1 | 23.9 | – | < 10 | < 10 | < 10 | < 10 | < 10 | < 10 | – | 35.3 | 193 to 195 | inhibition at 10 µM (HS 578 T): < 10%
Cc1ccc(C(=O)c2ccc(CC(=O)NNC(=O)Nc3ccc(Cl)c(C(F)(F)F)c3)n2C)cc1 [Compound 8c, N-(4-Chloro-3-(trifluoromethyl)phenyl)-2–(2-(1-methyl-5–(4-methylbenzoyl)-1H-pyrrol-2-yl)acetyl)hydrazinecarboxamide] | – | < 10 | 35.2 | < 10 | 10.9 | – | < 10 | < 10 | < 10 | < 10 | 16.8 | – | 10.9 | < 10 | – | 22.3 | – | < 10 | 38.4 | 171 to 173 | inhibition at 10 µM (Colo 205): < 10%; inhibition at 10 µM (HS 578 T): 11.9%; inhibition at 10 µM (HT29): < 10%; inhibition at 10 µM (UACC-257): 22.9%
